The numbers were not newly measured in US9005185B2, “Nanochanneled device and related methods” (The Board of Regents of the University of Texas System, priority 2008, dated 2015), which cites them from elsewhere.

The data set deals with T1, Aromatase (Homo sapiens, UniProt P11511).
T1 sequence (P11511 1-503): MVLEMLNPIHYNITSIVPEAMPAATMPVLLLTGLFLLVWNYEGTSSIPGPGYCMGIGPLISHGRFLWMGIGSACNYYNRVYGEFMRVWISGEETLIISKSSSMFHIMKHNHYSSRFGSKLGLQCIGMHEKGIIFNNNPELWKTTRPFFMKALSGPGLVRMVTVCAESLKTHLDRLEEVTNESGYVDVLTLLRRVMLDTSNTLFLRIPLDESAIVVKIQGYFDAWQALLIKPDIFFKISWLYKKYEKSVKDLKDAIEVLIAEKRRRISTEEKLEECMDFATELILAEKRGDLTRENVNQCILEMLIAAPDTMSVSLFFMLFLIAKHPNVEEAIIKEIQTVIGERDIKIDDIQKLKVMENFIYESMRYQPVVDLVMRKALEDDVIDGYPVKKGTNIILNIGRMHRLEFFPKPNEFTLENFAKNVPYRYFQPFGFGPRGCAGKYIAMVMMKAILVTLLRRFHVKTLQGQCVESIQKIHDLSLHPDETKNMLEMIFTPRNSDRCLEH

For `N#Cc1ccc(C(c2ccc(C#N)cc2)n2cncn2)cc1` [letrozole], the inhibits estrogen biosynthesis entry is “approximately 99%”.
